Results: ChEMBL document CHEMBL1201862, “PubChem BioAssay data set” (2004)
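48-hour exposure; five concentrations; linearly interpolated endpoints. GI50 = concentration required for 50% inhibition of growth.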 Calls of active or inactive are those of the source. Rule as the data show it: active = GI50 up to about 1.1 µM and inactive = higher.

Assays:
Test in all cases: growth of human tumour cells (NCI), 48 h
RXF 631 = test system: RXF 631
SR = test system: SR
A549 = test system: A549
U-251 = test system: U-251
UACC-257 = test system: UACC-257
SK-OV-3 = test system: SK-OV-3
SN12C = test system: SN12C
M14 = test system: M14
OVCAR-5 = test system: OVCAR-5
DMS-114 = test system: DMS-114
A498 = test system: A498
COLO 205 = test system: COLO 205
K562 = test system: K562
OVCAR-3 = test system: OVCAR-3
CCRF-CEM = test system: CCRF-CEM
NCI-H460 = test system: NCI-H460
LXFL 529 = test system: LXFL 529
HCT-15 = test system: HCT-15
SK-MEL-28 = test system: SK-MEL-28
SF-539 = test system: SF-539
LOX IMVI = test system: LOX IMVI
HT-29 = test system: HT-29
NCI-H226 = test system: NCI-H226
OVCAR-4 = test system: OVCAR-4
TK-10 = test system: TK-10
ACHN = test system: ACHN
SK-MEL-2 = test system: SK-MEL-2
EKVX = test system: EKVX
IGROV-1 = test system: IGROV-1
SK-MEL-5 = test system: SK-MEL-5
KM12 = test system: KM12
HOP-18 = test system: HOP-18
SNB-78 = test system: SNB-78
M19-MEL = test system: M19-MEL
SNB-19 = test system: SNB-19
SF-268 = test system: SF-268
786-0 = test system: 786-0
DLD-1 = test system: DLD-1
KM-20L2 = test system: KM-20L2
HOP-62 = test system: HOP-62
CAKI-1 = test system: CAKI-1
SW-620 = test system: SW-620
DMS-273 = test system: DMS-273
UACC-62 = test system: UACC-62
HCT-116 = test system: HCT-116
SNB-75 = test system: SNB-75
NCI-H522 = test system: NCI-H522
Malme-3M = test system: Malme-3M
HL-60 = test system: HL-60
HCC 2998 = test system: HCC 2998
MOLT-4 = test system: MOLT-4
RPMI-8226 = test system: RPMI-8226
NCI-H23 = test system: NCI-H23
XF498 = test system: XF498
SF-295 = test system: SF-295
UO-31 = test system: UO-31
OVCAR-8 = test system: OVCAR-8

## COc1ccc2c(c1)[n+]([O-])c(C(=O)C/C(=N/OCCCc1ccccc1)C(=O)NC13CC4CC(CC(C4)C1)C3)c(C)[n+]2[O-]
RXF 631
  GI50: > 100 µM (inactive)
SR
  GI50: > 100 µM (inactive)
A549
  GI50: > 100 µM (inactive)
U-251
  GI50: > 100 µM (inactive)
UACC-257
  GI50: > 100 µM (inactive)
SK-OV-3
  GI50: > 100 µM (inactive)
SN12C
  GI50: > 100 µM (inactive)
M14
  GI50: > 100 µM (inactive)
OVCAR-5
  GI50: > 100 µM (inactive)
DMS-114
  GI50: > 100 µM (inactive)
A498
  GI50: > 100 µM (inactive)
COLO 205
  GI50: > 100 µM (inactive)
K562
  GI50: 82.8 µM (inactive)
OVCAR-3
  GI50: > 100 µM (inactive)
CCRF-CEM
  GI50: 54.8 µM (inactive)
NCI-H460
  GI50: > 100 µM (inactive)
LXFL 529
  GI50: > 100 µM (inactive)
HCT-15
  GI50: > 100 µM
SK-MEL-28
  GI50: > 100 µM (inactive)
SF-539
  GI50: > 100 µM (inactive)
LOX IMVI
  GI50: > 100 µM (inactive)
HT-29
  GI50: > 100 µM (inactive)
NCI-H226
  GI50: > 100 µM (inactive)
OVCAR-4
  GI50: > 100 µM (inactive)
TK-10
  GI50: > 100 µM (inactive)
ACHN
  GI50: > 100 µM (inactive)
SK-MEL-2
  GI50: > 100 µM (inactive)
EKVX
  GI50: > 100 µM (inactive)
IGROV-1
  GI50: > 100 µM (inactive)
SK-MEL-5
  GI50: > 100 µM (inactive)
KM12
  GI50: > 100 µM (inactive)
HOP-18
  GI50: > 100 µM (inactive)
SNB-78
  GI50: > 100 µM (inactive)
M19-MEL
  GI50: > 100 µM (inactive)
SNB-19
  GI50: > 100 µM (inactive)
SF-268
  GI50: > 100 µM (inactive)
786-0
  GI50: > 100 µM (inactive)
DLD-1
  GI50: > 100 µM (inactive)
KM-20L2
  GI50: > 100 µM (inactive)
HOP-62
  GI50: > 100 µM (inactive)
CAKI-1
  GI50: > 100 µM (inactive)
SW-620
  GI50: > 100 µM (inactive)
DMS-273
  GI50: > 100 µM (inactive)
UACC-62
  GI50: > 100 µM (inactive)
HCT-116
  GI50: > 100 µM (inactive)
SNB-75
  GI50: > 100 µM (inactive)
NCI-H522
  GI50: > 100 µM (inactive)
Malme-3M
  GI50: > 100 µM (inactive)
HL-60
  GI50: > 100 µM (inactive)
HCC 2998
  GI50: > 100 µM (inactive)
MOLT-4
  GI50: > 100 µM (inactive)
RPMI-8226
  GI50: > 100 µM (inactive)
NCI-H23
  GI50: > 100 µM (inactive)
XF498
  GI50: > 100 µM (inactive)
SF-295
  GI50: > 100 µM (inactive)
UO-31
  GI50: > 100 µM (inactive)
OVCAR-8
  GI50: > 100 µM (inactive)
